Test results as given in the NIST ThermoML archive (doi:10.1016/j.jct.2016.08.034).
Numbers after ± are expanded uncertainties.

Details: Crystal; DTA

**Q.** For C=CC(=O)N1CCC[C@@H](n2nc(-c3ccc(Oc4ccccc4)cc3)c3c(N)ncnc32)C1 [Ibrutinib], which Normal melting temperature is on record?
**A.** Its Normal melting temperature is 153.13 ± 1.1 °C.
